Results taken from US5643907A, “Pharmaceutical composition containing 5-morpholinomethyl-3-(4-chlorobenzylideneamine)-2-oxazolidinone and its use for the treatment of CNS disorders” (priority 1993, dated 1997).

Legend:
uptake of serotonin = assay: Effect on the uptake of serotonin in vivo (protection from p-chloramphetamine)
uptake of noradrenaline = assay: Effect on the uptake of noradrenaline in vivo (protection from 6-OHDA); set-up: species or system rat
Procedure: The point of reference for measuring the inhibiting effect on the uptake of noradrenaline was the protection from the effect of 6-hydroxydopamine (6-OHDA), which was administered intraventricularly. Rats were applied intraventricularly 250 μg of 6-OHDA in the volume of 20 μl of 0,9% solution of […] and 0,1% solution of ascorbic acid. […] The animals were decapitated 7 days after and the level of noradrenaline in the whole brain was measured by the division on the Sephadex G-10 column and fluorimetric assay following oxidation.

[1] = system: mice premedicated with pargyline; assay: Intensification of L-dopa effects in mice premedicated with pargyline; assay type: in vivo, mouse; details: L-dopa 200 mg/kg i.p. after pargyline, control 1-2
Procedure: 3) The intensification of L-dopa effects in mice premedicated with pargyline.
Three hours after the oral administration of pargyline in the dosage of 40 mg/kg, there was applied orally either the examined preparation or IMI, followed after one hour by L-dopa administered intraperitoneally in the dosage of 200 mg/kg. The behaviour of the mice was evaluated according to the following 5-level score:
1 - piloerection, Straub's tail, exophtalmos of eyes, minute salivating, irritability.
2 - as above + translocations, single jumps.
3 - as above + bigger incitement of mobility, frequent jumps, climbing, single squeaks.
4 - as above + great incitement of mobility, aggresion, fights.
5 - as above + maximum incitement of mobility and aggresion

[2] = system: reserpine pretreated mice; assay: Intensification of L-Dopa effects in reserpine pretreated mice; assay type: in vivo, mouse; details: 8 mg/kg + L-Dopa 300 mg/kg after reserpine
Procedure: 2) The intensification of L-Dopa effects in reserpine pretreated mice.
The examined preparation was administered to mice p.o. in the dosages of 40 and 200 mg/kg 17 hours after reserpine in the dosage of 2,5 mg/kg had been administered intraperitoneally. After one hour L-dopa was injected in the dosage of 300 mg/kg. The intensification of L-dopa anti-reserpine action was evaluated according to the following parameters of the animals behaviour: mobility, irritability, ptosis and body temperature. According to the same empirical system IMI was examined in the dosages of 8 and 40 mg/kg.

rats behaviour = assay: Influence on the rats behaviour in "despair test" (Porsolt), immobility period; assay type: in vivo, rat; details: 20 mg/kg p.o., twice
Procedure: 1) The influence on the rats behaviour in "despair test".
The rats were placed separately in upright, metallic cylindrical containers, 60 cm high and 18 cm in diameter, containing 15 centimeters of water, at a temperature of 25° C. […] After 24 hours the rats were dived in water again and for 5 minutes the complete immobility period was measured. The examined preparation (containing 5-morpholinomethyl-3-(4-chlorobenzylideneamine)-2-oxazolidinone hydrochloride) or imipramine (IMI) was administered per os twice: at 24 hours and one hour before the beginning of the observation.

beta-adrenergic receptor = assay: Influence of chronic administration on concentration of beta-adrenergic cerebral receptors in vivo (3H-dihydroalprenolol bonding to cerebral cortex membranes); set-up: species or system rat; details: 10 mg/kg chronic administration, six weeks
Procedure: Rats were administered the examined preparation in the form of intraperitoneally injection and the dosage of 200 mg/kg twice daily for six weeks. In the same empirical system IMI was examined in the dosage of 10 mg/kg. The animals were killed 24 hours after the last injection and their cerebral cortexes were skeletonized.
The population of the beta-adrenergic receptor was characterised by the examination of the parameters of the ^3 H-dihydroalprenolol (^3 H-DHA) bonding to the membranes (fractiom P2) of the cerebral cortex. The tissue was homogenised in 20 volumes of the 50 mM buffer TRIS-HCl, pH 7,6 in the Polytron disintegrator (position 4,155) and centrifuged at 1000 g for 10 minutes. The supernatant was decanted and again centrifuged at 25000 for 20 minutes. The operations were conducted in the temperature of 0°-4° C. The precipitate, after the second centrifugation, decanting and removing the supernatant, was kept in the temperature of -18° C. until the time of incubation (no longer than 48 hours). The final fraction P2 was obtained by the subsequent process of the sediment homogenisation in such a volume of 50 mM buffer TRIS-HCl, pH 7,6, that the final concentration of protein amounted to 1,5 mg/ml.
The incubation mixture, containing 450 μl of the fraction P2 suspension, 50 μl of the ^3 H-DHA solution (6 different solutions; the final concentrations in the mixture […]) and 50 μl of buffer or propranolol solution (the final concentration in the sample […]) was incubated for 30 minutes in the temperature of 25° C. The incubation was finished by filtrating the suspension through filters made of glass fibres. The filters were twice rinsed with 5 ml of cold (0° C.) buffer TRIS-HCl, pH 7,6, and placed in scintillation minivessels, to which Bray's liquid was added. The radioactivity was measured by the Packard scintillation counter, model B329 with the efficiency of 36-37%.
The specific bonding was defined as the radioactivity difference between the samples incubated in the absence of propranolol (complete bonding) and in the presence of 10 μM of propranolol (blank). The data from the counter […] were recalculated individually into the decay frequence […], calculating it from the individual efficiency of each sample, received from the relation of impulses in the canals A and B. Bmax value and the constant of dissociation KD was calculated from the Scatchard diagrams, which were rectilinear.

[3] = system: mice in the conditions of hypoxia; assay: Effect on the time of survival in the conditions of hypoxia; assay type: in vivo, mouse; details: surviving/complete number
Procedure: The examined preparation was applied i.o. in the dosages 5, 10, 50, 75, 100 mg/kg 60 minutes before the beginning of the experiment. The experiment lasted until 0-3 animals survived in the control group. Subsequently oxygen was let in and finally normal air. The number of animals which survived in the control group was compared to the number of animals in the group administered the examined preparation. The number of surviving mice is presented in relation to the complete number of examined mice.

[4] = 100 mg/kg, controls: Examined 9/60 (p <0, 01), Piracetam 7/40 (n.d.), Pyritinol 8/60 (p <0, 01)

For `CC(N)Cc1ccc(Cl)cc1` (stereo not drawn) [p-CA, p-chloramphetamine, reference compound], which “serotonin, % in relation to the group after p-chloramphetamine” value (uptake of serotonin; p-CA alone (reference group), control 169) is on record?
The value was 100%.

What about the “decline of the cerebral serotonine concentration” value (uptake of serotonin; p-chloramphetamine alone) of the same molecule?
Its value is 40%.

How did the “decline of the noradrenalin content in the cerebrum” value (uptake of noradrenaline; 6-OHDA administered intraventricularly) turn out when `NCCc1cc(O)c(O)cc1O` [6-OHDA, 6-hydroxydopamine, reference compound] was run?
Its value is “over 50%”.

What about the “noradrenaline, % in relation to the group after chemosympathectomy” value (uptake of noradrenaline; 6-OHDA alone (reference group), control 216) of the same molecule?
The value was 100%.

For `CN(C)CCCN1c2ccccc2CCc2ccccc21` [IMI, imipramine, reference compound], which “Reaction of mice according to score” value ([1]; 4 mg/kg p.o.) is on record?
The value was 4.

And the “Reaction of mice according to score” value ([1]; 40 mg/kg p.o.)?
The value was 3-4.

And the “Temper. 60' (body temperature)” value [2]?
Its value is 34,3.

What about the “The immobility period, % of control” value (rats behaviour) of the same molecule?
Its value is 88%.

What about the “noradrenaline, % in relation to the group after chemosympathectomy” value (uptake of noradrenaline; 20 mg/kg before 6-OHDA) of the same molecule?
Its value is 188%.

What about the “Concentration of noradrenaline in the brain X ± SEM” value (uptake of noradrenaline; 20 mg/kg before 6-OHDA, control 205 ± 10, 5) of the same molecule?
The value was 179 ± 113, 5 mg/kg tissue.

And the “Bmax, % of control” value (beta-adrenergic receptor)?
The value was 60%.

And the “KD, % of control” value (beta-adrenergic receptor)?
Its value is 129%.

For `Cc1ncc(CSSCc2cnc(C)c(O)c2CO)c(CO)c1O` [Pyritinol, pyritinol, reference compound], which “The number of mice surviving in the conditions of hypoxia” value [3, 4] is on record?
Its value is 30/60.

What does the source list for `NC(=O)CN1CCCC1=O` [Piracetam, piracetam, reference compound]?
The number of mice surviving in the conditions of hypoxia [3, 4]: 6/40; The number of mice surviving in the conditions of hypoxia ([3]; 300 mg/kg, control 6/60, p <0, 05): 18/60
